Calls of active or inactive are those of the source. The calls are words filed in the database; no cut-off is given here.
Experiments:
PC-3 [1] = experiment: Antiproliferative activity against human PC-3 cells transfected with control shRNA assessed as inhibition of cell growth incubated for 72 hrs by MTT assay; format: functional, cell-based; details: PC-3, 72 h
A549 = experiment: Antiproliferative activity against human A549 cells assessed as inhibition of cell growth incubated for 72 hrs by MTT assay; format: functional, cell-based
PC-3 [2] = experiment: Induction of apoptosis in human PC-3 cells assessed as necrotic cells at 2.5 uM by Annexin V-FITC staining based flow cytometry (reference value: 0.48%); format: functional
[3] = target: T1, Son of sevenless homolog 1 (Homo sapiens) (UniProt Q07889); experiment: Inhibition of SOS1 in human PC-3 cells assessed as downregulation of ERK phosphorylation at 0.5 uM incubated for 15 mins by Western blotting analysis; format: cell-based
T1 sequence (whole entry): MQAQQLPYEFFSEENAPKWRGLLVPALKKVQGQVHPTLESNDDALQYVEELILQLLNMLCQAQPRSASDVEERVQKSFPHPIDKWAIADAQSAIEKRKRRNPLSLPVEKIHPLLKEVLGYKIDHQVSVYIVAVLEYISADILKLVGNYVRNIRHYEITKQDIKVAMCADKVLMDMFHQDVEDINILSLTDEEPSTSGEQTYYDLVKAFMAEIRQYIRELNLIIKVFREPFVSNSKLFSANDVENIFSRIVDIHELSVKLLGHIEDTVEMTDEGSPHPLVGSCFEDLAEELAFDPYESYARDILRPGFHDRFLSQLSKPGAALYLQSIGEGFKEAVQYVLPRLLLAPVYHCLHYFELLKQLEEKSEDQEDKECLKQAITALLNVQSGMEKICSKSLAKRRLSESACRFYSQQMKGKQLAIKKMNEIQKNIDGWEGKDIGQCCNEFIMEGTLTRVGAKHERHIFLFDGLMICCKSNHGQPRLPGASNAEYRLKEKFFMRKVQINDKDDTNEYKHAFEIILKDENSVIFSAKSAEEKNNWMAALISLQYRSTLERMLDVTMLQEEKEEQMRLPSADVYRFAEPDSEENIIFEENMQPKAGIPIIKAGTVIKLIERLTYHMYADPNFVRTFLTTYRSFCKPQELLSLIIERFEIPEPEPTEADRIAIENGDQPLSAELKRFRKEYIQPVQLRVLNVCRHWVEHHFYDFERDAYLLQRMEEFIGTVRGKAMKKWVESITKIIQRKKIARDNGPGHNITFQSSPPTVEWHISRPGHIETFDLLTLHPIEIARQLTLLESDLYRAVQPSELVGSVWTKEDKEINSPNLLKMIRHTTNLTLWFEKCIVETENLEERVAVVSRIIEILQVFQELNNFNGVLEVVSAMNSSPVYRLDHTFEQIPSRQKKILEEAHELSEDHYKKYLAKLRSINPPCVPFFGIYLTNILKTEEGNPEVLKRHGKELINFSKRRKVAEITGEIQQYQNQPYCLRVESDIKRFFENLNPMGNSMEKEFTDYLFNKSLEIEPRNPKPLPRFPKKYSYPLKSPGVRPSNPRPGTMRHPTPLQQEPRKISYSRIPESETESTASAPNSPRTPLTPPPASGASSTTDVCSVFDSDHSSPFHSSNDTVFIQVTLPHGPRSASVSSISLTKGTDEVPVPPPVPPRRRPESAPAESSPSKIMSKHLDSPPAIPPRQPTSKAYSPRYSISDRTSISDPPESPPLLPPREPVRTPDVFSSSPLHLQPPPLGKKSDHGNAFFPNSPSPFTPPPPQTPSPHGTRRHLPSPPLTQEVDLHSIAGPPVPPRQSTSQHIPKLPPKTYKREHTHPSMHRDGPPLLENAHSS

HUVEC [4] = experiment: Inhibition of cell migration in HUVEC cells assessed as reduction in invasion index at 0.5 to 12.5 uM measured after 48 hrs by crystal violet staining based transwell invasion assay; format: functional; details: Homo sapiens, dose 0.5-12.5 µM
PC-3 [5] = experiment: Induction of apoptosis in human PC-3 cells assessed as viable cells at 12.5 uM by Annexin V-FITC staining based flow cytometry (reference value: 94.9%); format: functional; details: read-out: Activity
PC-3 [6] = experiment: Induction of apoptosis in human PC-3 cells assessed as late apoptotic cells at 12.5 uM by Annexin V-FITC staining based flow cytometry (reference value: 1.93%); format: functional
PC-3 [7] = experiment: Antitumor activity against human PC-3 cells xenografted in BALB/c mouse assessed as reduction in number of Ki67-positive cells in tumor tissue at ip administrated once every 4 days for 24 days by DAPI staining based immunohistochemical analysis; format: functional, organism-based; details: time 24.0 day
[8] = Toxicity in BALB/c mouse xenografted with human PC-3 cells assessed as change in AST level at 5 mg/kg,ip administrated once every 4 days for 24 days by automatic biochemical analyzer; format: organism-based; details: in vivo, 576 h, time 24 day
PC-3 [9] = experiment: Antiproliferative activity against human PC-3 cells transfected with EGFR shRNA assessed as inhibition of cell growth incubated for 72 hrs by MTT assay; format: functional, cell-based; details: PC-3, 72 h
NCI-H358 = experiment: Antiproliferative activity against human NCI-H358 cells harboring KRAS G12C mutant assessed as inhibition of cell growth incubated for 72 hrs by MTT assay; format: functional, cell-based; details: NCI-H358, 72 h
PC-3 [10] = experiment: Induction of apoptosis in human PC-3 cells assessed as early apoptotic cells at 0.5 uM by Annexin V-FITC staining based flow cytometry (reference value: 2.64%); format: functional
PC-3 [11] = experiment: Antiproliferative activity against human PC-3 cells transfected with SOS1 and EGFR shRNA assessed as inhibition of cell growth incubated for 72 hrs by MTT assay; format: functional, cell-based; details: PC-3, 72 h
PC-3 [12] = experiment: Induction of cell cycle arrest in human PC-3 cells assessed as downregulation of cyclin D1 expression by Western blotting analysis; format: functional, cell-based
PC-3 [13] = experiment: Antitumor activity against human PC-3 cells xenografted in BALB/c mouse assessed as reduction in number of CD31-positive cells in tumor tissue at ip administrated once every 4 days for 24 days by DAPI staining based immunohistochemical analysis; format: functional, organism-based; details: time 24.0 day
Calu-1 = experiment: Antiproliferative activity against human Calu-1 cells harboring KRAS G12C mutant assessed as inhibition of cell growth incubated for 72 hrs by MTT assay; format: functional, cell-based; details: Calu-1, 72 h
[14] = target: T1, Son of sevenless homolog 1 (Homo sapiens); experiment: Inhibition of SOS1 in human PC-3 cells assessed as downregulation of ERK phosphorylation at 2.5 uM incubated for 15 mins by Western blotting analysis; format: cell-based
[15] = Toxicity in BALB/c mouse xenografted with human PC-3 cells assessed as heart pathological change at 20 mg/kg,ip administrated once every 4 days for 24 days by hematoxylin and eosin staining based analysis; format: organism-based; details: in vivo, 576 h, time 24 day
HUVEC [16] = experiment: Antiangiogenic activity in HUVEC cells assessed as reduction of node at 0.5 to 12.5 uM incubated for 8 hrs by matrigel based microscopic analysis; format: functional, cell-based; details: Homo sapiens, dose 0.5-12.5 µM
PC-3 [17] = experiment: Induction of cell cycle arrest in human PC-3 cells assessed as accumulation of cells at S phase at 0.5 uM by PI staining based flow cytometry (reference value: 16.58%); format: functional
SK-LU-1 = experiment: Antiproliferative activity against human SK-LU-1 cells harboring KRAS G12D mutant assessed as inhibition of cell growth incubated for 72 hrs by MTT assay; format: functional, cell-based; details: SK-LU-1, 72 h

**Q.** Which results are given for `COc1cc2ncnc(N[C@H](C)c3cccc(F)c3)c2cc1OC1CCOCC1`?
**A.** IC50 (PC-3 [1]): 0.43 µM; Activity (A549): Active; Activity (PC-3 [2]): 0.57%; inhibition [3]: Active; inhibition (HUVEC [4]): Active; viability at 12.5 µM (PC-3 [5]): 74.3%; Activity (PC-3 [6]): 4.07%; Activity (PC-3 [7]): Dose-Dependent Effect; Activity [8]: Non-Toxic; IC50 (PC-3 [9]): 5.48 µM; IC50 (NCI-H358): 0.55 µM; Activity (PC-3 [10]): 11.7%; IC50 (PC-3 [11]): > 10 µM; Activity (PC-3 [12]): Dose-Dependent Effect; Activity (PC-3 [13]): Dose-Dependent Effect; IC50 (Calu-1): 0.55 µM; inhibition [14]: Active; Activity [15]: Toxic; Activity (HUVEC [16]): Active; Activity (PC-3 [17]): 10.84%; IC50 (SK-LU-1): 0.55 µM
